# Measurements from US10689383B2, “Optionally fused heterocyclyl-substituted derivatives of pyrimidine useful for the treatment of inflammatory, metabolic, oncologic and autoimmune diseases” (NUEVOLUTION A/S, priority 2014, dated 2020).
# Experiments:
# [1] = molecular target: T1, human RORγt (Ligand Binding Domain) (Homo sapiens, UniProt P51449); experiment: Fluorescence Polarization (FP) Assay; details: Fluorescence Polarization (FP) Assay; values given as upper bounds of activity ranges; read-out: FP activity range
# T1 construct: purchased Crelux (Planegg, Germany) batch no PC5032-1
# T1 sequence (P51449 269-508 limits assumed): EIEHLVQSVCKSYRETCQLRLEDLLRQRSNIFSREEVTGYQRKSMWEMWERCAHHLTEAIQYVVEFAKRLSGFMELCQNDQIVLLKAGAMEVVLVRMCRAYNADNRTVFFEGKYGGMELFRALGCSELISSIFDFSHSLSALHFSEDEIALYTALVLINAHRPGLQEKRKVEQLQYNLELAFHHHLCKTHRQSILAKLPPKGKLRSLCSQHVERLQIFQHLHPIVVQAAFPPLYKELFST
# How it was run: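 In vitro FP binding assay monitoring ligand binding within the ligand binding pocket. Probe is a TAMRA-labelled RORγt ligand (MW 910 g/mole); DMSO served as negative control.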
# [2] = molecular target: T2, yeast Gal4-DNA binding domain fused to the ligand binding domain of human RORγ (Homo sapiens, UniProt P51449); experiment: RORγ Reporter Assay (Gal4); format: cell-based; details: values given as lower bounds of ranges; for Gal4 activity range @ 0.1 μM (% inhibition): RORγ Reporter Assay (Gal4) at 0.1 μM; for Gal4 activity range @ 1 μM (% inhibition): RORγ Reporter Assay (Gal4) at 1 μM
# T2 construct: host or cells: HEK293t
# T2 sequence (P51449 269-508 limits assumed): T1 sequence (P51449 269-508 limits assumed)
# How it was run: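 HEK293t reporter cells expressing the hybrid, with Gal4-UAS-driven firefly luciferase, treated in triplicate with compound at 1,000 nM and 100 nM (0.1% DMSO) in medium with 10% charcoal-stripped FBS for 24 h at 37 °C. Luminescence read; percent reduction of RLU calculated relative to vehicle.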
Structure (SMILES),IC50 [1] [nM],Gal4 activity range @ 0.1 μM (% inhibition) [2] [% inhibition],Gal4 activity range @ 1 μM (% inhibition) [2] [% inhibition]
"CS(=O)(=O)Cc1ccc(CNc2ncnc(N3CCCC3c3ccc(C(F)(F)F)cc3)c2F)cc1 (stereo not drawn) [Example 95, 5-fluoro-N-[[4-(methylsulfonylmethyl)phenyl]methyl]-6-[2-[4-(trifluoromethyl)phenyl]pyrrolidin-1-yl]pyrimidin-4-amine]",< 1000,>20,>80
"Cc1ccc(CNc2ncnc(N3CCCC3c3ccc(OC(F)(F)F)cc3)c2F)cn1 (stereo not drawn) [Example 97, 5-fluoro-N-[(6-methyl-3-pyridyl)methyl]-6-[2-[4-(trifluoromethoxy)phenyl]pyrrolidin-1-yl]pyrimidin-4-amine]",< 1000,>20,>80
"CC(C)(O)Cc1ccc(CNc2ncnc(N3CCCC3c3ccc(C(F)(F)F)cc3)c2F)cc1 (stereo not drawn) [Example 98, 1-[4-[[[5-fluoro-6-[2-[4-(trifluoromethyl)phenyl]pyrrolidin-1-yl]pyrimidin-4-yl]amino]methyl]phenyl]-2-methyl-propan-2-ol]",< 1000,>20,>80
"Oc1ccc(CNc2ncnc(N3CCCC3c3ccc(C(F)(F)F)cc3)c2F)cn1 (stereo not drawn) [Example 100, 5-[[[5-fluoro-6-[2-[4-(trifluoromethyl)phenyl]pyrrolidin-1-yl]pyrimidin-4-yl]amino]methyl]pyridin-2-ol]",< 2000,,>20
"Cn1cc(CNc2ncnc(N3CCCC3c3ccc(C(F)(F)F)cc3)c2F)cn1 (stereo not drawn) [Example 106, 5-fluoro-N-[(1-methylpyrazo1-4-yl)methyl]-6-[2-[4-(trifluoromethyl)phenyl]pyrrolidin-1-yl]pyrimidin-4-amine]",< 10000,,>20
"Cc1ccc(CNc2ncnc(N3CCCC3c3ccc(C(F)(F)F)cc3)c2F)o1 (stereo not drawn) [Example 107, 5-fluoro-N-[(5-methyl-2-furyl)methyl]-6-[2-[4-(trifluoromethyl)phenyl]pyrrolidin-1-yl]pyrimidin-4-amine]",< 10000,,>0
"CN1CC(CNc2ncnc(N3CCCC3c3ccc(C(F)(F)F)cc3)c2F)CC1=O (stereo not drawn) [Example 109, 4-[[[5-fluoro-6-[2-[4-(trifluoromethyl)phenyl]pyrrolidin-1-yl]pyrimidin-4-yl]amino]methyl]-1-methyl-pyrrolidin-2-one]",< 2000,,>20
"CN(C)C(=O)C1CCC(CNc2ncnc(N3CCCC3c3ccc(C(F)(F)F)cc3)c2F)O1 (stereo not drawn) [Example 110, 5-[[[5-fluoro-6-[2-[4-(trifluoromethyl)phenyl]pyrrolidin-1-yl]pyrimidin-4-yl]amino]methyl]-N,N-dimethyl-tetrahydrofuran-2-carboxamide]",< 10000,,>0
"COC1(CNc2ncnc(N3CCCC3c3ccc(C(F)(F)F)cc3)c2F)CCOCC1 (stereo not drawn) [Example 111, 5-fluoro-N-[(4-methoxytetrahydropyran-4-yl)methyl]-6-[2-[4-(trifluoromethyl)phenyl]pyrrolidin-1-yl]pyrimidin-4-amine]",< 500,>50,>80
"COc1cc(CNc2ncnc(N3CCCC3c3ccc(C(F)(F)F)cc3)c2F)ccn1 (stereo not drawn) [Example 113, 5-fluoro-N-[(2-methoxy-4-pyridyl)methyl]-6-[2-[4-(trifluoromethyl)phenyl]pyrrolidin-1-yl]pyrimidin-4-amine]",< 500,>50,>80
"COc1ccc(CNc2ncnc(N3CCCC3c3ccc(C(F)(F)F)cc3)c2F)cn1 (stereo not drawn) [Example 114, 5-fluoro-N-[(6-methoxy-3-pyridyl)methyl]-6-[2-[4-(trifluoromethyl)phenyl]pyrrolidin-1-yl]pyrimidin-4-amine]",< 1000,>20,>80
"Fc1c(NCc2ccc(Cn3cncn3)cc2)ncnc1N1CCCC1c1ccc(C(F)(F)F)cc1 (stereo not drawn) [Example 115, 5-fluoro-N-[[4-(1,2,4-triazol-1-ylmethyl)phenyl]methyl]-6-[2-[4-(trifluoromethyl)phenyl]pyrrolidin-1-yl]pyrimidin-4-amine]",< 500,>50,>80
"COc1ccc(CN(C)c2ncnc(N3CCCC3c3ccc(C(F)(F)F)cc3)c2F)cn1 (stereo not drawn) [Example 116, 5-fluoro-N-[(6-methoxy-3-pyridyl)methyl]-N-methyl-6-[2-[4-(trifluoromethyl)phenyl]pyrrolidin-1-yl]pyrimidin-4-amine]",< 1000,>20,>50
"O=C(O)Cc1ccc(CNc2ncnc(N3CCC[C@H]3c3ccc(C(F)(F)F)cc3)c2F)cc1 [Example 118, 2-[4-[[[5-fluoro-6-[(2S)-2-[4-(trifluoromethyl)phenyl]pyrrolidin-1-yl]pyrimidin-4-yl]amino]methyl]phenyl]acetic acid]",< 10000,>0,>20
"O=C(O)Cc1ccc(CNc2ncnc(N3CCOCC3c3ccc(C(F)(F)F)cc3)c2F)cc1 (stereo not drawn) [Example 119, 2-[4-[[[5-fluoro-6-[3-[4-(trifluoromethyl)phenyl]morpholin-4-yl]pyrimidin-4-yl]amino]methyl]phenyl]acetic acid]",< 1000,>20,>80
"CC(C)CC(Nc1ncnc(N2CCCC2c2ccc(C(F)(F)F)cc2)c1F)c1nnn[nH]1 (stereo not drawn) [Example 123, 5-fluoro-N-[3-methyl-1-(1H-tetrazol-5-yl)butyl]-6-[2-[4-(trifluoromethyl)phenyl]pyrrolidin-1-yl]pyrimidin-4-amine]",< 10000,>0,>20
"Fc1c(NCc2ccc(C(F)(F)F)nc2)ncnc1N1CCCC1c1ccc(C(F)(F)F)cc1 (stereo not drawn) [Example 126, 5-fluoro-6-[2-[4-(trifluoromethyl)phenyl]pyrrolidin-1-yl]-N-[[6-(trifluoromethyl)-3-pyridyl]methyl]pyrimidin-4-amine]",< 2000,>20,>50
"OCCc1ccc(CNc2ncnc(N3CCCC3c3ccc(C(F)(F)F)cc3)c2F)cc1 (stereo not drawn) [Example 128, 2-[4-[[[5-fluoro-6-[2-[4-(trifluoromethyl)phenyl]pyrrolidin-1-yl]pyrimidin-4-yl]amino]methyl]phenyl]ethanol]",< 500,>50,
"OC1(CNc2ncnc(N3CCCC3c3ccc(C(F)(F)F)cc3)c2F)CCOCC1 (stereo not drawn) [Example 129, 4-[[[5-fluoro-6-[2-[4-(trifluoromethyl)phenyl]pyrrolidin-1-yl]pyrimidin-4-yl]amino]methyl]tetrahydropyran-4-ol]",< 500,>50,
"COc1ccnc(CNc2ncnc(N3CCCC3c3ccc(C(F)(F)F)cc3)c2F)c1 (stereo not drawn) [Example 131, 5-fluoro-N-[(4-methoxy-2-pyridyl)methyl]-6-[2-[4-(trifluoromethyl)phenyl]pyrrolidin-1-yl]pyrimidin-4-amine]",< 2000,>20,
"Fc1c(NCc2ccncc2)ncnc1N1CCCC1c1ccc(C(F)(F)F)cc1 (stereo not drawn) [Example 140, 5-fluoro-N-(4-pyridylmethyl)-6-[2-[4-(trifluoromethyl)phenyl]pyrrolidin-1-yl]pyrimidin-4-amine]",< 500,>20,
"O=C(O)CC1CCC(CNc2ncnc(N3CCCC3c3ccc(C(F)(F)F)cc3)c2F)CC1 (stereo not drawn) [Example 148, 2-[4-[[[5-fluoro-6-[2-[4-(trifluoromethyl)phenyl]pyrrolidin-1-yl]pyrimidin-4-yl]amino]methyl]cyclohexyl]acetic acid]",< 1000,>50,
"CC1(CNc2ncnc(N3CCCC3c3ccc(C(F)(F)F)cc3)c2F)CCC1 (stereo not drawn) [Example 152, 5-fluoro-N-[(1-methylcyclobutyl)methyl]-6-[2-[4-(trifluoromethyl)phenyl]pyrrolidin-1-yl]pyrimidin-4-amine]",< 500,>0,
"CC1(CNc2ncnc(N3CCC[C@@H]3c3ccc(C(F)(F)F)cc3)c2F)CCOCC1 [Example 161, 5-fluoro-N-[(4-methyltetrahydropyran-4-yl)methyl]-6-[(2R)-2-[4-(trifluoromethyl)phenyl]pyrrolidin-1-yl]pyrimidin-4-amine]",< 500,>20,
